Columns and labels:
[1] = system: 2nd instar larvae of Spodoptera frugiperda; experiment: Laboratory test, 2nd instar larvae of Spodoptera frugiperda on treated soybean leaves; type: in vivo; conditions: within 96 h
[2] = system: 2nd instar larvae of Spodoptera frugiperda; experiment: Laboratory test, 2nd instar larvae of Spodoptera frugiperda on maize leaves; type: in vivo; conditions: within 72 h

CNC(=O)c1cc(C#N)cc(C)c1NC(=O)c1cc(Br)nn1-c1ncccc1Cl [Compound 1, 3-bromo-1-(3-chloro-2-pyridinyl)-N-[4-cyano-2-methyl-6-[(methylamino)carbonyl]phenyl]-1H-pyrazole-5-carboxamide]
Concentration needed to achieve 50% mortality, relative to the concentration of Compound 2 [1]: 4-5 times greater

CNC(=O)c1cc(Cl)cc(C)c1NC(=O)c1cc(Br)nn1-c1ncccc1Cl [Compound 2, 3-bromo-N-[4-chloro-2-methyl-6-[(methylamino)carbonyl]phenyl]-1-(3-chloro-2-pyridinyl)-1H-pyrazole-5-carboxamide]
Concentration in leaf tissue needed to achieve 100% mortality [2]: 0.037 μg per g of tissue
Concentration in leaf tissue resulting in 50% mortality [2]: 0.033 μg per g of leaf tissue
